# In patent publication US20200338158A1, “Therapeutic Drug for Non-Alcoholic Fatty Liver Disease” (Shanghai Hep Pharmaceutical Co., Ltd., priority 2017, published 2020):
# “Also recorded” adds a separate entry of the source.
# How the values were obtained:
# Format in all cases: in vivo
# C57BL6 mice [1] = assay: Liver biochemistry test, mouse NASH model
# Excerpt: (§1) In this example, a mouse nonalcoholic steatohepatitis (NASH) model was used to evaluate the effect of hepalatide (L47) on pathological changes and metabolism level of NASH, and to determine whether L47 can improve the pathological changes of NASH, so as to provide reference for pharmacodynamic evaluation of L47 before clinical treatment.
# Hydroxyproline and free fatty acid (FFA) kits (Cat No.: A030-3 and A042-1, respectively) were provided by Nanjing Jiancheng Bioengineering Research Institute;
# Triglyceride (TG) and cholesterol (TC) (Cat No.: E1013-105 and E1015 respectively) were provided by Applygen Technologies Inc.
# At week 8 and week 16, liver was taken and levels of TG, TC, free fatty acid (FFA), hydroxyproline (HYP) were measured.
# C57BL6 mice [2] = assay: Glucose tolerance, fasting insulin and insulin resistance index, mouse NASH model; details: for blood glucose level in glucose tolerance test: treatment groups vs model group; for fasting serum insulin level / insulin resistance HOMA-RI level: vs model group
# Excerpt: As used herein, homeostatic model assessment (HOMA) index may refer HOMA-IR (quantifying the level of insulin resistance) index. The value of HOMA-IR can be calculated by following the formula of: HOMA-IR=[(blood glucose expressed in mmol/L)×(serum insulin expressed in mU/L)]/22.5.
# as §1
# 5.2.3 Insulin ELISA Test Kit, Cat No.: EZRMI-13K, Millipore Company.
# At week 8 and week 16, fasting blood glucose and glucose tolerance (subcutaneous injection of glucose: 2.5 mg/g, preparation concentration: 250 mg/ml) were measured in mice, blood glucose levels were measured at 0, 30, 60, 90 and 120 min after the injection of glucose, and insulin resistance index was calculated according to the fasting insulin level.
# C57BL6 mice [3] = assay: Quantitative CT of body fat deposition, mouse NASH model; details: week 16; for subcutaneous fat (CT): vs model group
# Excerpt: as §1
# Quantitative CT was used to locate and quantify subcutaneous, visceral and brown fat in mice at week 16.
# C57BL6 mice [4] = assay: Liver weight and gross liver observation, mouse NASH model (high fat feed + high sugar water)
# Excerpt: as §1
# (§2) 4.1.2 Model group (HFC-F/G): high fat feed+high sugar water, 9 mice in total, wherein 3 mice were sacrificed at week 8, and 6 mice were sacrificed at week 16.
# (§3) 4.1.3 Low dose group 1 (HFC-F/G+HL1): high fat feed+high sugar water+L47 20 mg/kg (10 mg/kg*2/d, i.e. once in the morning and once in the afternoon), 10 mice in total, wherein 3 mice were sacrificed at week 8, and 7 mice were sacrificed at week 16.
# (§4) 4.1.4 High dose group 1 (HFC-F/G+HH1): high fat feed+high sugar water+L47 60 mg/kg (30 mg/kg*2/d, i.e. once in the morning and once in the afternoon), 10 mice in total, wherein 3 mice were sacrificed at week 8, and 7 mice were sacrificed at week 16.
# (§5) 4.1.5 Low dose group 2 (HFC-F/G+HL2): high fat feed+high sugar water+L47 20 mg/kg (10 mg/kg*2/d, i.e. once in the morning and once in the afternoon, with pharmacologic intervention started 8 weeks after initiation of the experiment), 5 mice in total, which are sacrificed after 16 weeks.
# (§6) 4.1.6 High dose group 2 (HFC-F/G+HH2): high fat feed+high sugar water+L47 60 mg/kg (30 mg/kg*2/d, i.e. once in the morning and once in the afternoon, with pharmacologic intervention started 8 weeks after initiation of the experiment), 5 mice in total, which are sacrificed after 16 weeks.
# (§7) Route of administration: subcutaneous injection.
# At week 8 and week 16, liver was separated by dissection after anesthesia and blood collection, and pathological changes of liver tissues and accumulation of abdominal fat were grossly observed by the naked eye.
# C57BL6 mice [5] = assay: Mouse NASH model, overall conclusions at week 8 and week 16
# Excerpt: as §1
# 4.1.1 Normal control group (Control): common block feed+common water, 14 mice in total, wherein 6 mice were sacrificed at week 8, and 8 mice were sacrificed at week 16.
# as §2, §3, §4, §5, §6
# The concentration of L47 in low dose group was 5 mg/ml; the concentration of L47 in high dose group was 10 mg/ml.
# as §7
# [6] = week 8, treatment groups (HL1, HH1) vs model group
# [7] = week 16, HL2 (L47 10 mg/kg*2/d s.c., started after 8 weeks)
# [8] = treatment groups vs model group
# [9] = overall conclusion, week 8 and week 16
# [10] = overall conclusion, effect better as dose and administration duration increased
# [11] = overall conclusion, in a short period of time, dose-dependent
substance,measurement,setting,value
hepalatide [L47],liver FFA level,"C57BL6 mice [1]; week 8, high dose group vs model group, p<0.05",statistical significance
same,liver FFA level,C57BL6 mice [1]; [6],decreasing trends; also recorded: decreased significantly
same,liver hydroxyproline level,C57BL6 mice [1]; [6],decreasing trends; also recorded: reduced
same,liver TC level,"C57BL6 mice [1]; week 8, treatment groups (HL1, HH1) vs model group, p<0.001, p≤0.001",significantly decreased
same,liver TG level,"C57BL6 mice [1]; week 8, treatment groups (HL1, HH1) vs model group, p≤0.001, p<0.001",significantly decreased; also recorded: decreased significantly
same,liver hydroxyproline level,"C57BL6 mice [1]; week 16, HH1 (L47 30 mg/kg*2/d s.c. from start)",higher
same,liver hydroxyproline level,"C57BL6 mice [1]; week 16, HL1 (L47 10 mg/kg*2/d s.c. from start)",higher
same,liver TC level,"C57BL6 mice [1]; week 16, treatment groups (HL1, HH1, HL2, HH2) vs model group, p<0.001 each",significantly decreased
same,liver FFA level,"C57BL6 mice [1]; week 16, treatment groups vs model group",decreased; also recorded: decreasing trends
same,liver TG level,"C57BL6 mice [1]; week 16, vs model group, HH1 (L47 30 mg/kg*2/d s.c. from start)",decreasing trends
same,liver hydroxyproline level,"C57BL6 mice [1]; week 16, vs model group, HH2 (L47 30 mg/kg*2/d s.c., started after 8 weeks), more significant, p<0.05",decreased
same,liver TG level,"C57BL6 mice [1]; week 16, vs model group, HH2 (L47 30 mg/kg*2/d s.c., started after 8 weeks), p<0.05",significantly decreased
same,liver TG level,"C57BL6 mice [1]; week 16, vs model group, HL1 (L47 10 mg/kg*2/d s.c. from start)",decreasing trends
same,liver hydroxyproline level,"C57BL6 mice [1]; week 16, vs model group, HL2 (L47 10 mg/kg*2/d s.c., started after 8 weeks)",decreased
same,liver TG level,"C57BL6 mice [1]; week 16, vs model group, HL2 (L47 10 mg/kg*2/d s.c., started after 8 weeks), p<0.01",significantly decreased
same,blood glucose level in glucose tolerance test,"C57BL6 mice [2]; week 8, 90 min after glucose, p<0.05, p<0.01",significantly decreased
same,blood glucose level in glucose tolerance test,"C57BL6 mice [2]; week 8, 120 min after glucose, p<0.01",significantly decreased
same,blood glucose level in glucose tolerance test,"C57BL6 mice [2]; week 16, 90 min after glucose",decreasing trend
same,blood glucose level in glucose tolerance test,"C57BL6 mice [2]; week 16, 120 min after glucose",decreasing trend
same,blood glucose,"C57BL6 mice [2]; week 16, treatment groups vs model group (conclusions)",decreased
same,fasting serum insulin level,"C57BL6 mice [2]; week 16, HH1 (L47 30 mg/kg*2/d s.c. from start), p<0.001",significantly decreases
same,insulin resistance HOMA-RI level,"C57BL6 mice [2]; week 16, HH1 (L47 30 mg/kg*2/d s.c. from start), p<0.05",significantly decreases
same,insulin resistance HOMA-RI level,"C57BL6 mice [2]; week 16, HH2 (L47 30 mg/kg*2/d s.c., started after 8 weeks)",decreasing trend
same,fasting serum insulin level,"C57BL6 mice [2]; week 16, HH2 (L47 30 mg/kg*2/d s.c., started after 8 weeks), p<0.001",significantly decreases
same,fasting serum insulin level,"C57BL6 mice [2]; week 16, HL1 (L47 10 mg/kg*2/d s.c. from start), p<0.001",significantly decreases
same,insulin resistance HOMA-RI level,"C57BL6 mice [2]; week 16, HL1 (L47 10 mg/kg*2/d s.c. from start), p<0.05",significantly decreases
same,fasting serum insulin level,C57BL6 mice [2]; [7],decreasing trend
same,insulin resistance HOMA-RI level,C57BL6 mice [2]; [7],no significant difference
same,subcutaneous fat (quantitative body fat on CT scan),C57BL6 mice [3]; L47 treatment groups vs model group (conclusions),decreased significantly
same,brown fat (CT),C57BL6 mice [3]; [8],no significant difference
same,visceral fat (CT),C57BL6 mice [3]; [8],no significant difference; also recorded: no significant effect
same,subcutaneous fat (CT),C57BL6 mice [3]; HH1 (L47 30 mg/kg*2/d s.c. from start),decreased
same,subcutaneous fat (CT),"C57BL6 mice [3]; HH2 (L47 30 mg/kg*2/d s.c., started after 8 weeks)",decreased
same,subcutaneous fat (CT),"C57BL6 mice [3]; HL2 (L47 10 mg/kg*2/d s.c., started after 8 weeks)",decreased
same,"general observation of liver change (color, weight)","C57BL6 mice [4]; treatment groups vs model group, week 8 implied",improved
same,liver weight,"C57BL6 mice [4]; week 8, each group (HL1, HH1)",no significant difference
same,"general observation of liver change (color, weight)","C57BL6 mice [4]; week 16, low dose group 2 and high dose group 2 vs model group",liver colors tended to be normal
same,liver weight,"C57BL6 mice [4]; week 16, vs model group, HL2 (L47 10 mg/kg*2/d s.c., started after 8 weeks), p<0.05",decreased significantly
same,"levels of ALB, HDL and LDL",C57BL6 mice [5]; [9],reduce
same,levels of VLDL and ALP,C57BL6 mice [5]; [9],no effect
same,blood glucose and insulin level,C57BL6 mice [5]; [10],effectively reduce
same,insulin resistance,C57BL6 mice [5]; [10],improve
same,apoptosis (liver),C57BL6 mice [5]; [11],improve
same,fibrosis degree of liver,C57BL6 mice [5]; [11],effectively reduce
same,levels of ALT and AST,C57BL6 mice [5]; [11],effectively reduce
same,"subcutaneous fat, liver fat and serum fat deposition","C57BL6 mice [5]; overall conclusion, in a short period of time, dose-dependent, improvement reduced as treatment duration extended",effectively reduce
same,"liver fat accumulation, liver cell damage, insulin resistance and liver fibrosis","C57BL6 mice [5]; short-term (8 weeks) co-administration or delayed administration, to various degrees",improve
